The target in series [1] is T1, Histamine H3 receptor (Homo sapiens, UniProt Q9Y5N1). Nature of the series: Displacement of [3H]R-alpha-methyl histamine from recombinant human H3 receptor. On the technique in general: Displacement assays read how much labelled ligand stays bound in the presence of the test substance.
A further series has as its target Cytochrome P450 3A4 (Homo sapiens, UniProt P08684). Nature of the series: Inhibition of human CYP3A4 after 2 mins by LC-MS/MS analysis. In kind it is ADME.
In another series the target is Cytochrome P450 2D6 (Homo sapiens, UniProt P10635). As to the kind of experiment: Inhibition of human CYP2D6 after 12 mins by LC-MS/MS analysis. It is filed as ADME.
For series [2], the target named is T1, Histamine H3 receptor. As to the kind of experiment: Binding affinity to recombinant human H3 receptor.
Series [3] has as its target T1, Histamine H3 receptor. Nature of the series: Antagonist activity at recombinant human H3 receptor expressed on CHO-K1 cells assessed as cAMP level by luciferase gene reporter assay. In kind it is functional, cell-based. (In general: Changes in cAMP serve as a functional read-out for many G protein-coupled receptors.)
Series [4] is described as follows: Cmax in fasted Wistar rat at 5 mg/kg, po by LC-MS/MS analysis. In kind it is ADME, organism-based. Set-up: dose 5 mg/kg, route oral. To be noted: in vivo.
In series [5] the target is T2, hERG (KCNH2) (Homo sapiens, UniProt Q12809). Nature of the series: Inhibition of human ERG at 1 uM by scintillation counting method.
Series [6] is described as follows: Metabolic stability in human liver microsomes assessed as compound metabolized after 30 mins by LC-MS/MS analysis. In kind it is ADME. Conditions: read-out: Drug metabolism.
Series [7] can be described thus: Metabolic stability in rat liver microsomes assessed as compound metabolized after 30 mins by LC-MS/MS analysis. It is filed as ADME. To be noted: read-out: Drug metabolism. In general terms: Liver microsomes are a subcellular fraction often used to study metabolism.
Series [8] has as its system Rattus norvegicus. Nature of the series: AUCt in fasted Wistar rat at 5 mg/kg, po by LC-MS/MS analysis. It is filed as ADME, organism-based. Conditions: in vivo.
In series [9] the test system is Rattus norvegicus. Nature of the series: Oral bioavailability in fasted Wistar rat at 5 mg/kg by LC-MS/MS analysis. In kind it is ADME, organism-based. To be noted: in vivo.
In series [10] the test system is Rattus norvegicus. As to the kind of experiment: Half life in fasted Wistar rat at 5 mg/kg, iv by LC-MS/MS analysis. In kind it is ADME, organism-based. Conditions: in vivo.
Series [11] is described as follows: Cmax in fasted Wistar rat at 3 mg/kg, po by LC-MS/MS analysis. It is filed as ADME, organism-based. Conditions: in vivo. Further details: dose 3 mg/kg, route oral.
The target in series [12] is T2, hERG (KCNH2). As to the kind of experiment: Inhibition of human ERG at 10 uM by scintillation counting method.
Series [13] concerns Rattus norvegicus. Nature of the series: AUCt in fasted Wistar rat at 3 mg/kg, po by LC-MS/MS analysis. It is filed as ADME, organism-based. To be noted: in vivo.
For series [14], the system named is Rattus norvegicus. Nature of the series: Oral bioavailability in fasted Wistar rat at 3 mg/kg by LC-MS/MS analysis. It is filed as ADME, organism-based. Conditions: in vivo.
The test system of series [15] is Rattus norvegicus. Nature of the series: Apparent volume of distribution in fasted Wistar rat at 3 mg/kg, iv by LC-MS/MS analysis. In kind it is ADME, organism-based. Conditions: in vivo.
Series [16] is described as follows: Drug uptake in Wistar rat brain at 3 mg/kg, po after 1 hr by LC-MS/MS analysis. In kind it is ADME, organism-based. Conditions: read-out: Drug uptake.
Series [17] in a line: Drug uptake in Wistar rat brain at 10 mg/kg, po after 1 hr by LC-MS/MS analysis. Conditions: read-out: Drug uptake. In kind it is ADME, organism-based.
Series [18] is described as follows: Drug uptake in Wistar rat brain at 30 mg/kg, po after 1 hr by LC-MS/MS analysis. It is filed as ADME, organism-based. To be noted: read-out: Drug uptake.
Series [19] can be described thus: Plasma concentration in Wistar rat at 3 mg/kg, po after 1 hr by LC-MS/MS analysis. It is filed as ADME, organism-based.
Series [20] can be described thus: Plasma concentration in Wistar rat at 10 mg/kg, po after 1 hr by LC-MS/MS analysis. In kind it is ADME, organism-based.
Series [21] can be described thus: Plasma concentration in Wistar rat at 30 mg/kg, po after 1 hr by LC-MS/MS analysis. It is filed as ADME, organism-based.
Series [22] can be described thus: Ratio of drug level in brain to blood in Wistar rat at 10 mg/kg, po by LC-MS/MS analysis.
Series [23] relates to Rattus norvegicus. Nature of the series: In vivo receptor occupancy at histamine H3 receptor in po dosed Wistar rat by LC-MS/MS analysis. In kind it is functional.

From ChEMBL document CHEMBL3751729, “Benzamide derivatives and their constrained analogs as histamine H3 receptor antagonists” (Eur J Med Chem, 2016) come the findings set out here.

T2 sequence (Q12809 whole entry): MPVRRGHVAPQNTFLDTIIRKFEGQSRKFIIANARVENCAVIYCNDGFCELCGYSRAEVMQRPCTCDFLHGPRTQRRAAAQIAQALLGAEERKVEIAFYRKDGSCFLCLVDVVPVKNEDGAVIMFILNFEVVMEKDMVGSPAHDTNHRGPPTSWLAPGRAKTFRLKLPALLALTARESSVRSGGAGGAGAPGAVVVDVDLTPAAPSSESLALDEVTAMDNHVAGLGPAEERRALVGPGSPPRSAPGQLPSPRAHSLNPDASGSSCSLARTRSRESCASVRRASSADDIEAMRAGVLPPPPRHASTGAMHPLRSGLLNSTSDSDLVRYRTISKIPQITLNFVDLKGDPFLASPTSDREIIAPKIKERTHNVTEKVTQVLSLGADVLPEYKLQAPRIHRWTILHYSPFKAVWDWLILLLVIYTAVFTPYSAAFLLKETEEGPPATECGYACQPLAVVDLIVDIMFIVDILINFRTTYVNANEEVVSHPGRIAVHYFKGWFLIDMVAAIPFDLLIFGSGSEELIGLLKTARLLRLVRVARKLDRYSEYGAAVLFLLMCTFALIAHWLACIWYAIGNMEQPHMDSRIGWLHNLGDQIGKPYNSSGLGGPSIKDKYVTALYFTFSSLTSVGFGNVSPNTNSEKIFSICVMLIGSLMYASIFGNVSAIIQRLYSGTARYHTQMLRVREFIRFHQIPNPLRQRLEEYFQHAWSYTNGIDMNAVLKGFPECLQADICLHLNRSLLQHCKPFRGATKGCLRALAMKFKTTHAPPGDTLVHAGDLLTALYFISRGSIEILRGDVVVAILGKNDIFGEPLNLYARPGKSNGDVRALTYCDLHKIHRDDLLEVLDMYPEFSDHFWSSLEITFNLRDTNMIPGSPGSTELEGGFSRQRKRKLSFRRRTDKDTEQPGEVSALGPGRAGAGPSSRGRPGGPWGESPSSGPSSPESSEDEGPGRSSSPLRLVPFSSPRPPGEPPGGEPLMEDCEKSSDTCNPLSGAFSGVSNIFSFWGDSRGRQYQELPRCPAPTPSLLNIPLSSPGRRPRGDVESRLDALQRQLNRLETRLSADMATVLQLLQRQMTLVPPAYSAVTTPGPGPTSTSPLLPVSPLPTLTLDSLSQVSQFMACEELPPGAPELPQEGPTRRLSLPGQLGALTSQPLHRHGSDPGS
T1 sequence (Q9Y5N1 whole entry): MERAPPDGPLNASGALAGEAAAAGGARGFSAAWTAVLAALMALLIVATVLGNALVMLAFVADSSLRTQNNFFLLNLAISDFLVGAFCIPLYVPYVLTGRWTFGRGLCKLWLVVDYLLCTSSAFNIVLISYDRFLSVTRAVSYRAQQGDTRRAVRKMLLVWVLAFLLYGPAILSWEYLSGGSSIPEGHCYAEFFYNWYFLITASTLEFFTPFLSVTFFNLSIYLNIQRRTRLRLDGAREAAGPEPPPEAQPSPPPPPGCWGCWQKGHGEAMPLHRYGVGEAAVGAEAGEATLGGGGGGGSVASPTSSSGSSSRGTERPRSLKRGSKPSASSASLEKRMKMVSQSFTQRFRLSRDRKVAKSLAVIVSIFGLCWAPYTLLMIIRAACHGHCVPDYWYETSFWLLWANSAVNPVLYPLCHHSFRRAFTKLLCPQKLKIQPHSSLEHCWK
Sequence of Cytochrome P450 2D6 (P10635 whole entry): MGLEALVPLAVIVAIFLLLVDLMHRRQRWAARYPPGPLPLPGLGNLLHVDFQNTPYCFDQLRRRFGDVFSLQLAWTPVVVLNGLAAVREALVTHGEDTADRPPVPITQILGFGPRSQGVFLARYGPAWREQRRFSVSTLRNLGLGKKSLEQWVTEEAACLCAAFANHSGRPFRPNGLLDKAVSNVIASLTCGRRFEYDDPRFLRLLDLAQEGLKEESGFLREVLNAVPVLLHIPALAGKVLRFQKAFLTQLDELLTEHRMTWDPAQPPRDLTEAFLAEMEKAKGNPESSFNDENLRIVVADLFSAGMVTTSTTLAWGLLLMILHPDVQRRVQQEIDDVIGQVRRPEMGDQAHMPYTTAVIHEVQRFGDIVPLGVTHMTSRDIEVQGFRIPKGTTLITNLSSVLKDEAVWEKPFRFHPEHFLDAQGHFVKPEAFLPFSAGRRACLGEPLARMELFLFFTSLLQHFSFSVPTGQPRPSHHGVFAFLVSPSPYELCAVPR
Sequence of Cytochrome P450 3A4 (P08684 whole entry): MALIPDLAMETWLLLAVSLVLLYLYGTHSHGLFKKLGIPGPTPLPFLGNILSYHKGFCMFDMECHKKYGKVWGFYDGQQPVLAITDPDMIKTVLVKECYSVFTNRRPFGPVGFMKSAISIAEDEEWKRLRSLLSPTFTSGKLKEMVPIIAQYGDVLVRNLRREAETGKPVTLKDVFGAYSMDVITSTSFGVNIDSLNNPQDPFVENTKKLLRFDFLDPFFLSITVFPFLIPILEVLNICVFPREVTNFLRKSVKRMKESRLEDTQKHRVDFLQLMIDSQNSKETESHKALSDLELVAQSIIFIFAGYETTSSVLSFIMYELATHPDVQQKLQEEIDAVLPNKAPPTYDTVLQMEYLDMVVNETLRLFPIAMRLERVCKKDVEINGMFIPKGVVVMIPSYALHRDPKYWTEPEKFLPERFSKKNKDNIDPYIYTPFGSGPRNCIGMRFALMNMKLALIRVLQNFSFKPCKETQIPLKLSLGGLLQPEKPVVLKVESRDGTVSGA

As usually defined, the Ki is a measure of affinity in units of concentration, obtained from inhibition or displacement. As for `CC(C)N1CCC(Oc2ccc(C(=O)NC3CCN(C(C)C)C3)cc2)CC1` (racemic), the Ki on Histamine H3 receptor [1] worked out at 5.7 nM.
As for `CC(C)N1CCC(Oc2ccc(C(=O)NC3CCN(C4CCC4)C3)cc2)CC1` (racemic), at Histamine H3 receptor [1], the Ki was found to be 2.5 nM.
`Cc1cc(C(=O)NC2CCN(C3CCC3)C2)ccc1OC1CCN(C(C)C)CC1` (racemic): at Histamine H3 receptor [1], the Ki was determined as 384 nM.
Regarding `CC(C)N1CCC(Oc2ccc(C(=O)NC3CCN(C4CCC4)C3)cc2F)CC1` (racemic), the Ki on Histamine H3 receptor [1] turned out to be 7.3 nM.
Same read-out and setting: to `CC(C)N1CCC(Oc2ccc(C(=O)NC3CCN(C4CCC4)CC3)c(F)c2)CC1` belongs 10.5 nM; to `CC(C)N1CCC(NC(=O)c2ccc(OC3CCN(C(C)C)CC3)cc2)CC1`, 8.3 nM; to `CC(C)N1CCC(NC(=O)c2ccc(OC3CCN(C4CCCC4)CC3)cc2)C1` (racemic), 8.6 nM.
For the compound `Cc1cc(C(=O)NC2CCN(C(C)C)C2)ccc1OC1CCN(C(C)C)CC1` (racemic), the Ki on Histamine H3 receptor [1] was 1360 nM.
What is called IC50 is the concentration needed to halve the response being measured. `CC(C)N1CCC(NC(=O)c2ccc(OC3CCN(C4CCC4)CC3)cc2)C1` (stereo not drawn): the concentration for half-maximal inhibition (IC50) at Cytochrome P450 3A4 and at Cytochrome P450 2D6 was > 30000 nM throughout.
Regarding `CC(C)N1CCC(Oc2ccc3c(c2)CCN(C2CCN(C4CCC4)CC2)C3=O)CC1`, the Ki at Histamine H3 receptor [1] stood at 1.8 nM.
`CC(C)N1CCC(Oc2ccc3c(c2)CCN(C2CCN(C(C)C)C2)C3=O)CC1` (stereo not drawn): at Histamine H3 receptor [2], the inhibition constant Ki was determined as 0.1 nM. Also, the IC50 at Histamine H3 receptor [3] amounted to 14.3 nM.
As to `Cc1cc(OC2CCN(C(C)C)CC2)ccc1C(=O)NC1CCN(C2CCC2)C1` (racemic), the Ki on Histamine H3 receptor [1] came to 9.2 nM.
For the compound `CC(C)N1CCC(NC(=O)c2ccc(OC3CCN(C4CCCC4)CC3)cc2)C1` (stereo not drawn), the inhibition constant Ki at Histamine H3 receptor [2] stood at 1 nM. The IC50 at Histamine H3 receptor [3] is 274 nM.
As for `CC(C)N1CCC(Oc2ccc(C(=O)NC3CCN(C4CCC4)C3)c(F)c2)CC1` (racemic), the Ki on Histamine H3 receptor [1] came out at 5.7 nM.
Same read-out and setting: the value for `CC(C)N1CCC(Oc2ccc(C(=O)NC3CCN(C4CCC4)C3)c(Cl)c2)CC1` (racemic) was 18.4 nM.
In the case of `O=C1CCCN1c1ccc(Oc2ccc3c(c2)CCN(C2CCC2)CC3)nc1` [GSK239512], the Ki on Histamine H3 receptor [2] was found to be 10 nM.
For `CC(C)N1CCC(NC(=O)c2ccc(OC3CCN(C4CCC4)CC3)cc2Cl)CC1`, the Ki on Histamine H3 receptor [1] came to 7 nM.
Still for that read-out and setting: the value for `CC(C)N1CCC(NC(=O)c2ccc(OC3CCN(C4CCC4)CC3)cc2)CC1` was 1.6 nM; that for `CC(C)N1CCC(Oc2ccc3c(c2)CCN(C2CCN(C4CCC4)C2)C3=O)CC1` (racemic) was 1.2 nM; that for `CC(C)N1CCC(NC(=O)c2ccc(OC3CCN(C(C)C)CC3)cc2F)CC1` was 11.4 nM.
The term Cmax denotes the peak of the concentration-time curve. As usually defined, the inhibition is the share of the control response that was lost under treatment. Read a low inhibition as a response near the control. In the case of `CC(C)N1CCC(Oc2ccc(C(=O)NC3CCN(C(C)C)C3)cc2)CC1` (stereo not drawn), the Cmax in [4] is 0.122 µg/mL. For the same compound, the inhibition constant (Ki) on Histamine H3 receptor [2] came out at 0.9 nM. Besides, the figures for the IC50 at Histamine H3 receptor [3], at Cytochrome P450 3A4 and on Cytochrome P450 2D6 were 324 nM, > 45000 nM and > 45000 nM, respectively. The inhibition at 1 µM against hERG (KCNH2) [5] came out at 21%. The metabolised at 0.5 h in series [6] amounted to 12%; in series [7], 4%. This compound also gave an AUCt in the series with Rattus norvegicus [8] of 0.444 µg·h/mL. For the same compound, the F with Rattus norvegicus [9] came out at 75%. The compound also showed a t1/2 in the series with Rattus norvegicus [10] of 11.67 h.
Turning to `CC(C)N1CCC(NC(=O)c2ccc(OC3CCOCC3)cc2)C1` (racemic), the inhibition constant Ki on Histamine H3 receptor [1] turned out to be 103 nM.
One may read the Kp as the ratio of the level in a tissue or fluid to that in plasma or blood. As a reminder, the ED50 is the dose at which the effect has come halfway, by size or by number of responders. A high value points to weaker potency. Regarding `O=C1c2ccc(OC3CCN(C4CCC4)CC3)cc2CCN1C1CCN(C2CCC2)CC1`, the Ki at Histamine H3 receptor [1] amounted to 0.8 nM; at Histamine H3 receptor [2] it was 0.03 nM. The compound also had a maximum concentration (Cmax) in series [11] of 0.08 µg/mL. In addition, on Histamine H3 receptor [3], the IC50 came out at 4.8 nM. The same compound came in with an inhibition at 1 µM at hERG (KCNH2) [5] of 23%. Moreover, the inhibition at 10 µM against hERG (KCNH2) [12] came to 26%. In addition, the metabolised at 0.5 h in [6] turned out to be 10%; in [7], 6%. In the series with Rattus norvegicus [13], the AUCt was found to be 1.429 µg·h/mL. The compound also displayed a F in the series on Rattus norvegicus [14] of 27%. The Vz in the series on Rattus norvegicus [15] is 13 L/kg. Moreover, the concentration at 1 h was determined as 28.5 ng/g in [16]; 175 ng/g in series [17]; 765 ng/g in [18]; 0.0037 µg/mL in series [19]; 0.0157 µg/mL in series [20]; 0.0763 µg/mL in series [21]. For the same compound, the partition ratio (Kp) in series [22] came out at 0.54. Moreover, in the series on Rattus norvegicus [23], the Activity entry was “Dose-dependent effect”. This compound also showed an ED50 with Rattus norvegicus [23] of 15.5 mg/kg.
Consider `CC(C)N1CCC(Oc2ccc3c(c2)CCN(C2CCN(C(C)C)C2)C3=O)CC1` (racemic), for which, on Histamine H3 receptor [1], the Ki came to 2.1 nM.
On the same count and under the same terms, to `CC(C)CN1CCC(NC(=O)c2ccc(OC3CCN(C(C)C)CC3)cc2)C1` (racemic) belongs 1 nM; to `O=C(NC1CCN(C2CCC2)CC1)c1ccc(OC2CCN(C3CCC3)CC2)cc1Cl`, 6.7 nM.
In series [4], `CC(C)CN1CCC(NC(=O)c2ccc(OC3CCN(C(C)C)CC3)cc2)C1` (stereo not drawn) had a Cmax of 0.018 µg/mL. Further, the Ki on Histamine H3 receptor [2] was 1.2 nM. Also, on Histamine H3 receptor [3], the IC50 came to 459 nM. The same compound had an inhibition at 10 µM on hERG (KCNH2) [12] of 35%. In addition, the metabolised at 0.5 h is 18% in series [6] and 8% in [7]. The same compound displayed an AUCt with Rattus norvegicus [8] of 0.281 µg·h/mL. The compound also showed a F in the series with Rattus norvegicus [9] of 81%. In addition, the t1/2 with Rattus norvegicus [10] came to 17.51 h.
`CC(C)N1CCC(NC(=O)c2ccc(OC3CCN(C4CCC4)CC3)cc2)C1` (racemic): the Ki on Histamine H3 receptor [1] was found to be 26.9 nM.
